Where a name gives a salt, the structure may show the parent alone.
What was measured:
Details in all cases: averaged IC50
[1] = biological target: His-tagged recombinant human MER cytoplasmic domain (Homo sapiens (Human), UniProt Q12866); assay: MER Enzyme Assay (LanthaScreen Eu Kinase Binding, TR-FRET)
Procedure, shortened: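 LanthaScreen Eu kinase binding (tracer displacement) assay with His-tagged human MER cytoplasmic domain, 60 min incubation at 22 °C. TR-FRET dual-wavelength emission ratio converted to percent of control; IC50 is where the 4-parameter logistic fit crosses 50 POC.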

[2] = biological target: GST-tagged recombinant human TYRO3 kinase domain (Homo sapiens (Human), UniProt Q06418); assay: TYRO3 Enzyme Assay (LanthaScreen Eu Kinase Binding, TR-FRET)
Procedure, shortened: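 LanthaScreen Eu binding (tracer displacement) format read by TR-FRET after 60 min at 22 °C. Emission ratio converted to percent of control; IC50 taken where a 4-parameter logistic fit crosses 50 POC.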

[3] = biological target: His-tagged recombinant human AXL cytoplasmic domain (Homo sapiens (Human), UniProt P30530); assay: AXL Enzyme Assay (LanthaScreen Eu Kinase Binding, TR-FRET)
Procedure, shortened: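 LanthaScreen Eu kinase binding format, incubated 60 min at 22 °C and read by TR-FRET dual-wavelength emission ratio as percent of control. IC50 taken where a 4-parameter logistic fit crosses 50 POC.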

Sequence of GST-tagged recombinant human TYRO3 kinase domain (Q06418 518-790): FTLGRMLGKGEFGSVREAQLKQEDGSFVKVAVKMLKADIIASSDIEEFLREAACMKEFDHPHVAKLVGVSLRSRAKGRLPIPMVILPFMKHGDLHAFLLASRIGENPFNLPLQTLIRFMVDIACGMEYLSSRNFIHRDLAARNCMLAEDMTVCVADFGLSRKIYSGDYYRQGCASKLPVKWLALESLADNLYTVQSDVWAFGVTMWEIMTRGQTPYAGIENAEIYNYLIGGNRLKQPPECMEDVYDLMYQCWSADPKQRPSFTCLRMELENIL
Sequence of His-tagged recombinant human MER cytoplasmic domain (Q12866 527-999): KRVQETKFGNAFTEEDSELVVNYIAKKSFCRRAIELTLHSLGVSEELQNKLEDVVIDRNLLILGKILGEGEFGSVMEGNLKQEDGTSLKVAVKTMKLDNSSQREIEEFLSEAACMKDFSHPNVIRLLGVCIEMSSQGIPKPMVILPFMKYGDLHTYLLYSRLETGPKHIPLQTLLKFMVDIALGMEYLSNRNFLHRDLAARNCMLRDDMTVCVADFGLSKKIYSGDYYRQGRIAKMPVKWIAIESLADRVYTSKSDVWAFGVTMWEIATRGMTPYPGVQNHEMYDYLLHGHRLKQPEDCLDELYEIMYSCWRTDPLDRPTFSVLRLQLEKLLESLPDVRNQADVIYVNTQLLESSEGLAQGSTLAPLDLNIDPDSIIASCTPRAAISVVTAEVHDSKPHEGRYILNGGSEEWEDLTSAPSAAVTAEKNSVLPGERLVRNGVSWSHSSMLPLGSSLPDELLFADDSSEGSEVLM
Sequence of His-tagged recombinant human AXL cytoplasmic domain (P30530 473-894): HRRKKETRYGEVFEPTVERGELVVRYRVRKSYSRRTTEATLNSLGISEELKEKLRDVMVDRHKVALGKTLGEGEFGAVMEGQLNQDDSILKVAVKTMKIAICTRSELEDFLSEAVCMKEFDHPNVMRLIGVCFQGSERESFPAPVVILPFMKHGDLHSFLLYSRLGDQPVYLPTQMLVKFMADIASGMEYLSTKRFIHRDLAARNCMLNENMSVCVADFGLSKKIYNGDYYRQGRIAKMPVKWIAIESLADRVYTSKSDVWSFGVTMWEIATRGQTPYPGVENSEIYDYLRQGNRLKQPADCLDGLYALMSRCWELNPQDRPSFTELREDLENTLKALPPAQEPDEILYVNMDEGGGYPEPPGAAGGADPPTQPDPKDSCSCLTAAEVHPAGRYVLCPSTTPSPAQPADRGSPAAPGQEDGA

SMILES	IC50 [1]	IC50 [2]	IC50 [3]
CCNc1cc2c(cn1)c(-c1ccc(CN3CCN(C)CC3)cc1)nn2[C@H]1CC[C@@H](Oc2cn(C)nc2C(F)(F)F)CC1 [Example 289, N-ethyl-1-((1s,4s)-4-((1-methyl-3-(trifluoromethyl)-1H-pyrazol-4-yl)oxy)cyclohexyl)-3-(4-((4-methylpiperazin-1-yl)methyl)phenyl)-1H-pyrazolo[4,3-c]pyridin-6-amine]	< 10 nM	< 10 nM	< 10 nM
CCNc1cc2c(cn1)c(N1CC[C@H](O)C1)nn2[C@H]1CC[C@@H](Oc2nccc(C(F)(F)F)c2F)CC1 [Example 336, (S)-1-(6-(ethylamino)-1-((1s,4R)-4-((3-fluoro-4-(trifluoromethyl)pyridin-2-yl)oxy)cyclohexyl)-1H-pyrazolo[4,3-c]pyridin-3-yl)pyrrolidin-3-ol]	< 10 nM	10 to 100 nM	< 10 nM
CNc1cc2c(cn1)c(-c1cnn(C[C@@H](O)CO)c1)nn2[C@H]1CC[C@@H](Oc2ccccc2C(F)(F)F)CC1 [Example 419, (R)-3-(4-(6-(methylamino)-1-((1s,4S)-4-(2-(trifluoromethyl)phenoxy)-cyclohexyl)-1H-pyrazolo[4,3-c]pyridin-3-yl)-1H-pyrazol-1-yl)propane-1,2-diol]	< 10 nM	10 to 100 nM	< 10 nM
CCNc1cc2c(cn1)c(-c1ccc3c(c1)CNC3=O)nn2[C@H]1CC[C@@H](Oc2cn(C)nc2C(F)(F)F)CC1 [Example 287]	< 10 nM	< 10 nM	< 10 nM
CNc1cc2c(cn1)c(-c1cnn(CCS(C)(=O)=O)c1)nn2[C@H]1CC[C@@H](Oc2nccnc2C)CC1 [Example 211, N-methyl-1-((1s,4s)-4-((3-methylpyrazin-2-yl)oxy)cyclohexyl)-3-(1-(2-(methylsulfonyl)ethyl)-1H-pyrazol-4-yl)-1H-pyrazolo[4,3-c]pyridin-6-amine]	< 10 nM	10 to 100 nM	< 10 nM
CCNc1cc2c(cn1)c(-c1ncco1)nn2[C@H]1CC[C@@H](Oc2ccc(=O)n(C)n2)CC1 [Example 81, 6-(((1s,4s)-4-(6-(ethylamino)-3-(oxazol-2-yl)-1H-pyrazolo[4,3-c]pyridin-1-yl)cyclohexyl)oxy)-2-methylpyridazin-3(2H)-one bis(2,2,2-trifluoroacetate)]	1000 to 10000 nM	1000 to 10000 nM	1000 to 10000 nM
CCNc1cc2c(cn1)c(-c1cnn(C[C@@H](O)C(C)(C)O)c1)nn2[C@H]1CC[C@@H](Oc2cn(C)nc2C(F)(F)F)CC1 [Example 247, (R)-1-(4-(6-(ethylamino)-1-((1s,4S)-4-((1-methyl-3-(trifluoromethyl)-1H-pyrazol-4-yl)oxy)cyclohexyl)-1H-pyrazolo[4,3-c]pyridin-3-yl)-1H-pyrazol-1-yl)-3-methylbutane-2,3-diol]	< 10 nM	< 10 nM	< 10 nM
CNc1cc2c(cn1)c(-c1cnn(C[C@@H](O)CO)c1)nn2[C@H]1CC[C@@H](Oc2cccnc2C(F)(F)F)CC1 [Example 206, ®-3-(4-(6-(methylamino)-1-((1s,4s)-4-((2-(trifluoromethyl)pyridin-3-yl)oxy)cyclohexyl)-1H-pyrazolo[4,3-c]pyridin-3-yl)-1H-pyrazol-1-yl)propane-1,2-diol]	< 10 nM	< 10 nM	< 10 nM
CCNc1cc2c(cn1)c(-c1cnn(C(C)(C)C#N)c1)nn2[C@H]1CC[C@@H](Oc2nccc(C(F)(F)F)c2F)CC1 [Example 260, 2-(4-(6-(ethylamino)-1-((1s,4s)-4-((3-fluoro-4-(trifluoromethyl)pyridin-2-yl)oxy)cyclohexyl)-1H-pyrazolo[4,3-c]pyridin-3-yl)-1H-pyrazol-1-yl)-2-methylpropanenitrile]	< 10 nM	100 to 1000 nM	< 10 nM
CCNc1cc2c(cn1)c(-c1ccn(C)c(=O)c1)nn2[C@H]1CC[C@@H](Oc2cccnc2C(F)(F)F)CC1 [Example 219, 4-(6-(ethylamino)-1-((1s,4s)-4-((2-(trifluoromethyl)pyridin-3-yl)oxy)cyclohexyl)-1H-pyrazolo[4,3-c]pyridin-3-yl)-1-methylpyridin-2(1H)-one hydrochloride]	< 10 nM	< 10 nM	< 10 nM
CCNc1cc2c(cn1)c([C@H]1CC[C@@H](N(C)C)CC1)nn2[C@H]1CC[C@@H](Oc2nccc(C(F)(F)F)c2F)CC1 [Example 351, 3-((1s,4S)-4-(dimethylamino)cyclohexyl)-N-ethyl-1-((1s,4S)-4-((3-fluoro-4-(trifluoromethyl)pyridin-2-yl)oxy)cyclohexyl)-1H-pyrazolo[4,3-c]pyridin-6-amine]	< 10 nM	< 10 nM	< 10 nM
CCNc1cc2c(cn1)c(-c1ccc(S(C)(=O)=O)cc1)nn2[C@H]1CC[C@@H](Oc2cn(C)nc2C(F)(F)F)CC1 [Example 290, N-ethyl-1-((1s,4s)-4-((1-methyl-3-(trifluoromethyl)-1H-pyrazol-4-yl)oxy)cyclohexyl)-3-(4-(methylsulfonyl)phenyl)-1H-pyrazolo[4,3-c]pyridin-6-amine]	< 10 nM	< 10 nM	< 10 nM
CCNc1cc2c(cn1)c(C1CCN(C)C1)nn2[C@H]1CC[C@@H](Oc2nccc(C(F)(F)F)c2F)CC1 (stereo partly drawn) [Example 325, N-ethyl-1-((1s,4s)-4-((3-fluoro-4-(trifluoromethyl)pyridin-2-yl)oxy)cyclohexyl)-3-(1-methylpyrrolidin-3-yl)-1H-pyrazolo[4,3-c]pyridin-6-amine]	< 10 nM	10 to 100 nM	< 10 nM
CNc1cc2c(cn1)c(-c1ccc(CN3CCN(CCO)CC3)cc1)nn2[C@H]1CC[C@@H](Oc2ccc(=O)n(C)n2)CC1 [Example 78, 6-(((1s,4s)-4-(3-(4-((4-(2-hydroxyethyl)piperazin-1-yl)methyl)phenyl)-6-(methylamino)-1H-pyrazolo[4,3-c]pyridin-1-yl)cyclohexyl)oxy)-2-methylpyridazin-3(2H)-one]	< 10 nM	100 to 1000 nM	< 10 nM
CCNc1cc2c(cn1)c(-c1cnn(C(C)(C)C#N)c1)nn2[C@H]1CC[C@@H](Oc2cccnc2C(F)(F)F)CC1 [Example 164, 2-(4-(6-(ethylamino)-1-((1s,4s)-4-((2-(trifluoromethyl)pyridin-3-yl)oxy)cyclohexyl)-1H-pyrazolo[4,3-c]pyridin-3-yl)-1H-pyrazol-1-yl)-2-methylpropanenitrile]	< 10 nM	< 10 nM	< 10 nM
CCNc1cc2c(cn1)c(N1CC[C@@H](N)C1)nn2[C@H]1CC[C@@H](Oc2nccc(C(F)(F)F)c2F)CC1 [Example 494, 3-((R)-3-aminopyrrolidin-1-yl)-N-ethyl-1-((1s,4S)-4-((3-fluoro-4-(trifluoromethyl)pyridin-2-yl)oxy)cyclohexyl)-1H-pyrazolo[4,3-c]pyridin-6-amine]	< 10 nM	10 to 100 nM	< 10 nM
CNc1cc2c(cn1)c(-c1cnn(C3CCN(C)CC3)c1)nn2[C@H]1CC[C@@H](Oc2nccnc2C)CC1 [Example 214, N-methyl-3-(1-(1-methylpiperidin-4-yl)-1H-pyrazol-4-yl)-1-((1s,4s)-4-((3-methylpyrazin-2-yl)oxy)cyclohexyl)-1H-pyrazolo[4,3-c]pyridin-6-amine]	< 10 nM	10 to 100 nM	< 10 nM
CNc1cc2c(cn1)c(-c1ccc(CN3CCN(C)CC3)cc1)nn2[C@H]1CC[C@@H](Oc2cn(C)nc2C(F)(F)F)CC1 [Example 285, N-methyl-1-((1s,4s)-4-((1-methyl-3-(trifluoromethyl)-1H-pyrazol-4-yl)oxy)cyclohexyl)-3-(4-((4-methylpiperazin-1-yl)methyl)phenyl)-1H-pyrazolo[4,3-c]pyridin-6-amine]	< 10 nM	< 10 nM	< 10 nM
CNc1cc2c(cn1)c(-c1cnn(C(CO)CO)c1)nn2[C@H]1CC[C@@H](Oc2cccnc2C(F)(F)F)CC1 [Example 210, 2-(4-(6-(methylamino)-1-((1 s,4s)-4-((2-(trifluoromethyl)pyridin-3-yl)oxy)cyclohexyl)-1H-pyrazolo[4,3-c]pyridin-3-yl)-1H-pyrazol-1-yl)propane-1,3-diol]	< 10 nM	< 10 nM	< 10 nM
CCNc1cc2c(cn1)c(-c1ccc3c(c1)CN(C)C3=O)nn2[C@H]1CC[C@@H](Oc2cn(C)nc2C(F)(F)F)CC1 [Example 288, 5-(6-(ethylamino)-1-((1s,4s)-4((1-methyl-3-(trifluoromethyl)-1H-pyrazol-4-yl)oxy)cyclohexyl)-1H-pyrazolo[4,3-c]pyridin-3-yl)-2-methylisoindolin-1-one]	< 10 nM	< 10 nM	< 10 nM
CNc1cc2c(cn1)c(-c1cnn(C)c1)nn2[C@H]1CC[C@@H](Oc2ccc(=O)[nH]c2C(F)(F)F)CC1 [Example 105, 5-(((1s,4s)-4-(3-(1-methyl-1H-pyrazol-4-yl)-6-(methylamino)-1H-pyrazolo[4,3-c]pyridin-1-yl)cyclohexyl)oxy)-6-(trifluoromethyl)pyridin-2(1H)-one]	< 10 nM	< 10 nM	< 10 nM
CCNc1cc2c(cn1)c(N1CC[C@@H](NC)C1)nn2[C@H]1CC[C@@H](Oc2cccc(C(F)(F)F)c2F)CC1 [Example 492, N-ethyl-1-((1s,4S)-4-(2-fluoro-3-(trifluoromethyl)phenoxy)cyclohexyl)-3-((R)-3-(methylamino)pyrrolidin-1-yl)-1H-pyrazolo[4,3-c]pyridin-6-amine]	< 10 nM	10 to 100 nM	< 10 nM

Source: patent publication US11247990B1, “Bicyclic fused pyridine compounds as inhibitors of TAM kinases” (ARRAY BIOPHARMA INC., priority 2017, dated 2022)
